This is an account of results in US20120148530A1, “Method for the treatment or prevention of virus infection using polybiguanide-based compounds” (Novaflux Biosciences, Inc., priority 2003, published 2012).

One series deals with P4R5 cells. Nature of the series: P4R5 cell viability, MTT. The source says:
(§1) To build on the information provided by the monomeric biguanide data a series of polybiguanide molecules were synthesized with varied linker length as described in Example 1. In these molecules the methylene spacer arms between the biguanide functionalities (X and Y in Forumla I) have been changed.
As described above the effect of PEHMB and related compounds on P4R5 cell viability after a two-hour exposure to the compound was compared to the effects of control compounds such as N-9. […] To further evaluate the effect of this class of compound on various types of cells (in particular PEHMB P4-R5 cells, ME-180 cells (ATCC HTB-33; cervical epidermoid carcinoma), VK2/E6E7 human vaginal cell line (Fichorova et al. 1997 Biol. Reprod. 57:847-855), and human primary vaginal karatinocytes (isolated from tissues obtained from vaginal reconstructive surgery)) the compounds were incubated with the different cells for various lengths of time before assessment of cell viability.

Series [1] has as its system HIV-1 IIIB. The experiment in a line: HIV-1 IIIB viral binding/entry inhibition in P4R5 cells. It is filed as cell-based. The procedure:
as §1
Antiviral assays include a viral binding/entry assay in which reporter cells such as P4R5 are incubated with virus in the presence of compound for two hours at which time the drug is washed off and the cells incubated for 48 hrs before measuring the intracellular production of β-galactosidase (Ojwang et al. 1995 Antimicrobial Agents and Chemotherapy 39:2426-2435). In cell-associated virus inhibition (CAI) assays, HIV-1111B infected SUP T1 cells are pelleted to remove cell free virus and incubated with each compound for ten minutes at 37° C. before a 1:10 dilution in media and incubation with P4R5 indicator cells for 48 hours before measuring β-galactosidase activity. In cell-free virus assays HIV-1IIIB or BaL were incubated with each compound for 10 minutes at 37° C. before a 1:100 dilution in RPM! 1640, and incubated for 2 hours with P4R5 cells, and subsequent assays for viral infectivity were performed 48 hours later using the β-galactosidase method.
Select compounds were assessed for their ability to inhibit events necessary for HIV-1 binding and entry.
The same strategy was tested using PEHMB.

The target in series [2] is T1, CXCR4 (Homo sapiens, UniProt P61073).
T1 construct: host or cells: P4-R5 (P4-CCR5) cells, HeLa-derived
T1 sequence (P61073 whole entry): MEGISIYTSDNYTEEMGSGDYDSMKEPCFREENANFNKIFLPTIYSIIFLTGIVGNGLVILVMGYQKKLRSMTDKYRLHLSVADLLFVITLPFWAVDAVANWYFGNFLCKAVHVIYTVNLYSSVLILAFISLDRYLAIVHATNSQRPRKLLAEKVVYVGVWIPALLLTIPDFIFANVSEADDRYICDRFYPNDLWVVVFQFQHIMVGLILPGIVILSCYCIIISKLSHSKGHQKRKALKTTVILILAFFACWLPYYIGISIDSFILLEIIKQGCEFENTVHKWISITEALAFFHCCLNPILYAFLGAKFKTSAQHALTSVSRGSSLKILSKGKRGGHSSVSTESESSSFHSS
Nature of the series: FACS analysis of CXCR4 on P4-R5 cells. It is filed as cell-based. As to conditions: BCD 0.3%. The source says: (§2) After a 2 hr exposure to PEHMB (0.1%), P4-R5 cell presentation of CXCR4 was reduced from 98% to 29% (FIG. 6).
On the technique in general: In flow cytometry, cells or beads pass a laser one at a time.

In series [3] the target is T1, CXCR4. Nature of the series: FACS analysis of CXCR4 on PM-1 cells. To be noted: PEHMB 0.1%, BCD 0.3%, untreated 45%. Format: cell-based. The procedure: as §2
A similar experiment (FIG. 7) was performed using the PM-1 T lymphocyte cell line (Lusso et al. 1995 J. Virol 69:3712-3720). […] However, reductions in CD3 were not seen in response to compound exposure, indicating specificity of action with respect to PEHMB's impact on CXCR4 (data not shown).

The next series concerns HeLa cells. The experiment in a line: HeLa cell viability, MTT, 2 hr exposure. It is filed as cell-based. The protocol: HeLa cells (ATCC designation CCL-2) were maintained in Dulbecco's Modified Eagle's medium (DMEM). […] All three cell types were cultured in media supplemented with 10% fetal bovine serum (FBS), […] (0.3 mg/ml), antibiotics (penicillin, streptomycin, and kanamycin at 0.04 mg/ml each), and 0.05% sodium bicarbonate.
(§3) The experiments described below were conducted to determine the activity and cytotoxicity of short chain compounds having one or two biguanide groups. […] The efficacy determinations were made using P4R5 cells, which allow for the detection of bacterial β-galactosidase activity upon release of viral tat protein into the parent HeLa cell.

The subject of another series is cell-free HIV-1. The experiment in a line: Cell-free HIV-1 infectivity in P4R5 cells, β-galactosidase readout. Format: cell-based. To be noted: 2 hr exposure of cells to compounds in the presence of virus. The protocol:
as §3

Series [4] deals with HIV-1 IIIB. The experiment in a line: Modified viral binding inhibition assay: pre-treatment, wash, then HIV-1 IIIB challenge. It is filed as cell-based. As to conditions: 0.1% or 0.01%.
Experimental: In a modified viral binding inhibition assay (VBI) assay, HIV-1-susceptible P4R5 cells were maintained for 1 or 2 hr in the presence of PEHMB (0.1% and 0.01%) and then washed extensively before challenge with HIV-1 IIIB.
HIV-1-susceptible target cells were incubated with PEHMB (0.1%) for 2 hr, washed extensively with PBS, and subsequently challenged with HIV-1 IIIB at 0, 0.5, 1, 2, 3, and 4 hours after washing.
For another series, the system named is ME-180 cells. Nature of the series: ME-180 cell viability. Format: cell-based.
For series [5], the system named is Primary vaginal keratinocytes. Nature of the series: Primary vaginal keratinocyte viability. It is filed as cell-based, human.
The subject of a further series is Vk2/E6E7 cells. The experiment in a line: Vk2/E6E7 cell viability.

`OC[C@H]1O[C@@H]2O[C@H]3[C@H](O)[C@@H](O)[C@@H](O[C@H]4[C@H](O)[C@@H](O)[C@@H](O[C@H]5[C@H](O)[C@@H](O)[C@@H](O[C@H]6[C@H](O)[C@@H](O)[C@@H](O[C@H]7[C@H](O)[C@@H](O)[C@@H](O[C@H]8[C@H](O)[C@@H](O)[C@@H](O[C@H]1[C@H](O)[C@H]2O)O[C@@H]8CO)O[C@@H]7CO)O[C@@H]6CO)O[C@@H]5CO)O[C@@H]4CO)O[C@@H]3CO` [BCD, β-cyclodextrin]: the “cytotoxicity, FIG. 4A” value in the series with P4R5 cells was “non-cytotoxic”. For the same compound, the “remaining infectivity, % of mock-treated cells” value in the series on HIV-1 IIIB [1] (PEHMB 0.1%, BCD 0.3%, HIV-1 strain IIIB) was determined as 27%. For the same compound, on CXCR4 [2], the “effect on CXCR4” value is recorded as “no apparent effect”. At CXCR4 [3], this compound showed a CXCR4 presentation of 22%.

Regarding `N=C(N)NC(=N)Nc1ccccc1` [1-phenyl biguanide], in the series on HeLa cells, the “CC50 (%)” value is recorded as 0.150%. Also, the “IC50 (%)” value in the series with cell-free HIV-1 was determined as 0.522%.

Consider xyleneylene bis-biguanide, for which the “CC50 (%)” value in the series on HeLa cells was found to be 0.385%.

In the case of dextran sulfate, the “residual antiviral activity after removal of compound” value with HIV-1 IIIB [4] is “no residual antiviral activity”.

nonoxynol-9 [N-9]: the “CC50 (%)” value is 0.007% with HeLa cells; 0.005% in the series on P4R5 cells (P4R5 cell data (2 hr exposure), Table 6); 0.007% with P4R5 cells (P4R5 cells, 2 hr exposure, MTT (Table 3)); 0.007% in the series with P4R5 cells (Table 5). Besides, the “IC50 (%)” value is listed as 0.005% with cell-free HIV-1; 0.005% in the series with HIV-1 IIIB [1] (P4R5 cells, 2 hr exposure in the presence of HIV-1IIIB, Table 6); 0.005% in the series with HIV-1 IIIB [1] (Table 3); 0.005% in the series on HIV-1 IIIB [1] (Table 5). The compound further came in with a CC50 in the series on P4R5 cells (MTT) of 0.003%. Moreover, the “CC50 % 10 minute exposure” value in the series on P4R5 cells (P4-R5 cells, 10 minute exposure) is listed as 0.2%; with ME-180 cells (10 minute exposure) it was 0.20%; with Vk2/E6E7 cells (10 minute exposure), 0.03%. The “CC50 % 2 hr exposure” value in the series on P4R5 cells (P4-R5 cells, 2 hr exposure) is 0.008%; with ME-180 cells (2 hr exposure) it was 0.008%; in series [5], 0.007%; with Vk2/E6E7 cells (2 hr exposure) it was 0.006%. The “CC50 % 6 hr exposure” value with P4R5 cells (P4-R5 cells, 6 hr exposure) amounted to 0.005%; in the series with ME-180 cells (6 hr exposure) it was 0.007%; in the series on Vk2/E6E7 cells (6 hr exposure), 0.002%. In addition, the IC50 with HIV-1 IIIB [1] is recorded as 0.003%.

As for `[H]/N=C(/N)N/C(=N/[H])NCCc1ccccc1` [1-phenethyl biguanide], the “CC50 (%)” value with HeLa cells is recorded as 0.538%.
